# Test system: rabbit skeletal myofibrils (approximately 90% fast fibers)
# Assay: Activation of fast skeletal myofibrils (PUMA coupled-enzyme ATPase assay, AC1.4)
# Type: biochemical
# Details: Table 2; concentration at which the compound increased enzymatic activity by 40%; calcium at pCa25
# Description: Rabbit skeletal myofibrils were prepared based upon the method of Herrmann et al. (Biochem. 32(28):7255-7263(1993). Myofibrils were prepared from rabbit psoas muscle purchased from Pel-Freez Biologicals (Arkansas) within 2 days of ordering, stored on ice. Minced muscle was homogenized in 10 volumes of ice-cold “standard” buffer (50 mM Tris, pH 7.4, 0.1 M potassium acetate, 5 mM KCl, 2 mM DTT, 0.2 mM PMSF, 10 μM leupeptin, 5 μM pepstatin, and 0.5 mM sodium azide) containing 5 mM EDTA and 0.5% Triton X-100 using an Omni-Macro homogenizer. Myofibrils were recovered by low speed centrifugation (3000 rpm for 10 minutes) and washed 2 times in the Triton X-100 containing buffer to ensure removal of cellular membrane. Following the Triton washes, myofibrils were washed 3 times in “standard” buffer containing 2 mM magnesium acetate. A final wash in assay buffer (12 mM PIPES, pH 6.8, 60 mM KCl, 1 mM DTT) was performed and brought to 10% sucrose for flash freezing in liquid nitrogen and storage at −80° C.
# Fast fiber activators were identified by measuring the enzymatic activity of muscle myofibril preparations using the proprietary PUMA™ (see, e.g., U.S. Pat. Nos. 6,410,254, 6,743,599, 7,202,051, and 7,378,254) assay system. Myofibril preparations consisted of rabbit skeletal muscle (approximately 90% fast fibers) that had been mechanically homogenized and washed with a detergent (triton X-100) to remove cellular membranes. This preparation retained all of the sarcomeric components in a native conformation and the enzymatic activity was still regulated by calcium. Compounds were tested using a myofibril suspension and a level of calcium sufficient to increase enzymatic activity of the myofibrils to 25% of their maximal rate (termed pCa25). Enzymatic activity was tracked via a pyruvate kinase and lactate dehydrogenase-coupled enzyme system. This assay regenerates myosin-produced ADP into ATP by oxidizing NADH, producing an absorbance change at 340 nm. The buffering system was 12 mM Pipes, 2 mM MgCl2, 1 mM DTT at pH 6.8 (PM12 buffer).
# Using procedures similar to those described herein, utilizing reagents and intermediates commercially available (e.g., Sigma-Aldrich) or readily synthesized by one of skill in the art, the compounds in Table 2, Table 3, Table 4 and Table 5 were synthesized, characterized and tested. AC1.4 values were determined according to the procedure described in Example 6, and the reported median AC1.4 values are as follows: A=<1 uM; B=1-10 uM; C=10-20 uM; D=>20 uM.
row,Compound,Mean AC1.4
1,CN(CCO)c1nsc(NCC(C)(C)c2ccc(F)cc2)n1,D (D=>20 uM)
2,"CC(C)(CNc1nc(C(O)CO)ns1)c1ccc(F)cc1 (stereo not shown) [1-(5-{[2-(4-fluorophenyl)-2-methylpropyl]amino}-1,2,4-thiadiazol-3-yl)ethane-1,2-diol]",B (B=1-10 uM)
3,"CC(C)(CNc1nc(CCC(=O)N2CC[C@@H](O)C2)ns1)c1ccc(F)cc1 [1-((3R)-3-hydroxypyrrolidinyl)-3-(5-{[2-(4-fluorophenyl)-2-methylpropyl]amino}(1,2,4-thiadiazol-3-yl))propan-1-one]",D (D=>20 uM)
4,"CC(C)(CNc1nc(CCC(=O)N2CC[C@H](O)C2)ns1)c1ccc(F)cc1 [1-((3S)-3-hydroxypyrrolidinyl)-3-(5-{[2-(4-fluorophenyl)-2-methylpropyl]amino}(1,2,4-thiadiazol-3-yl))propan-1-one]",D (D=>20 uM)
5,"CC(C)(CNc1nc(CCN2CCCC(O)C2)ns1)c1ccc(F)cc1 (stereo not shown) [1-[2-(5-{[2-(4-fluorophenyl)-2-methylpropyl]amino}-1,2,4-thiadiazol-3-yl)ethyl]piperidin-3-ol]",C (C=10-20 uM)
6,"CC(C)(CNc1nc(CCN2CCC(O)CC2)ns1)c1ccc(F)cc1 [1-[2-(5-{[2-(4-fluorophenyl)-2-methylpropyl]amino}-1,2,4-thiadiazol-3-yl)ethyl]piperidin-4-ol]",D (D=>20 uM)
7,"CC(C)(CNc1nc(CN2CCN(S(C)(=O)=O)CC2)ns1)c1ccc(F)cc1 [1-[(5-{[2-(4-fluorophenyl)-2-methylpropyl]amino}(1,2,4-thiadiazol-3-yl))methyl]-4-(methylsulfonyl)piperazine]",C (C=10-20 uM)
8,"CC(C)(CNc1nc(CN2CCCC(O)C2)ns1)c1ccc(F)cc1 (stereo not shown) [1-[(5-{[2-(4-fluorophenyl)-2-methylpropyl]amino}-1,2,4-thiadiazol-3-yl)methyl]piperidin-3-ol]",D (D=>20 uM)
9,"CC(C)(CNc1nc(CN2CCC(O)CC2)ns1)c1ccc(F)cc1 [1-[(5-{[2-(4-fluorophenyl)-2-methylpropyl]amino}-1,2,4-thiadiazol-3-yl)methyl]piperidin-4-ol]",D (D=>20 uM)
10,"CC(C)(CNc1nc(CN2CCN(C(=O)CO)CC2)ns1)c1ccc(F)cc1 [1-{4-[(5-{[2-(4-fluorophenyl)-2-methylpropyl]amino}(1,2,4-thiadiazol-3-yl))methyl]piperazinyl}-2-hydroxyethan-1-one]",D (D=>20 uM)
11,"Cc1nsc(NC(=O)C(C)(C)c2ccc(F)cc2)n1 [2-(4-fluorophenyl)-2-methyl-N-(3-methyl(1,2,4-thiadiazol-5-yl))propanamide]",D (D=>20 uM)
12,"CC(C)(C(=O)Nc1nc(-c2ccccc2)ns1)c1ccc(F)cc1 [2-(4-fluorophenyl)-2-methyl-N-(3-phenyl(1,2,4-thiadiazol-5-yl))propanamide]",D (D=>20 uM)
13,"CC(C)(CNc1nc(-c2ccccc2O)ns1)c1ccc(F)cc1 [2-(5-{[2-(4-fluorophenyl)-2-methylpropyl]amino}-1,2,4-thiadiazol-3-yl)phenol]",B (B=1-10 uM)

# Same assay, conditions: Table 3; concentration at which the compound increased enzymatic activity by 40%; calcium at pCa25
row,Compound,Mean AC1.4
1,"CC(C)(O)c1ccc(F)c(-c2nnc(NC[C@]3(c4ncccc4F)C[C@H](F)C3)s2)c1 [2-(4-fluoro-3-(5-((3-fluoro-1-(3-fluoropyridin-2-yl)cyclobutyl)methylamino)-1,3,4-thiadiazol-2-yl)phenyl)propan-2-ol]",B (B=1-10 uM)
2,"NC(=O)c1ccccc1-c1nnc(NCC2(c3ncccc3F)CCC2)s1 [2-(5-((1-(3-fluoropyridin-2-yl)cyclobutyl)methylamino)-1,3,4-thiadiazol-2-yl)benzamide]",D (D=>20 uM)
3,"N#Cc1ccccc1-c1nnc(NCC2(c3ncccc3F)CCC2)s1 [2-(5-((1-(3-fluoropyridin-2-yl)cyclobutyl)methylamino)-1,3,4-thiadiazol-2-yl)benzonitrile]",B (B=1-10 uM)
4,"N#Cc1ccc(C#N)c(-c2nnc(NC[C@]3(c4ncccc4F)C[C@H](F)C3)s2)c1 [2-(5-((3-fluoro-1-(3-fluoropyridin-2-yl)cyclobutyl)methylamino)-1,3,4-thiadiazol-2-yl)terephthalonitrile]",B (B=1-10 uM)

# Same assay, conditions: Table 4; concentration at which the compound increased enzymatic activity by 40%; calcium at pCa25
row,Compound,Mean AC1.4
1,NC(=O)c1cccc2sc(NC[C@]3(c4ncccc4F)C[C@H](F)C3)nc12,D (D=>20 uM)
2,CC(C)(O)c1ccc2nc(NCC(C)(C)c3ccc(F)cc3)sc2c1 [2-(2-(2-(4-fluorophenyl)-2-methylpropylamino)benzo[d]thiazol-6-yl)propan-2-ol],A (A=<1 uM)
3,"CN(C)C(=O)c1ccc2nc(NCC(C)(C)c3ccc(F)cc3)sc2c1 [2-(2-(4-fluorophenyl)-2-methylpropylamino)-N,N-dimethylbenzo[d]thiazole-6-carboxamide]",B (B=1-10 uM)
4,CNC(=O)c1ccc2nc(NCC(C)(C)c3ccc(F)cc3)sc2c1 [2-(2-(4-fluorophenyl)-2-methylpropylamino)-N-methylbenzo[d]thiazole-6-carboxamide],B (B=1-10 uM)
5,CC(C)(CNc1nc2ccc(C(=O)O)cc2s1)c1ccc(F)cc1 [2-(2-(4-fluorophenyl)-2-methylpropylamino)benzo-6-carboxylic acid],C (C=10-20 uM)
6,CC(C)(CNc1nc2c(C#N)cccc2s1)c1ccc(F)cc1 [2-(2-(4-fluorophenyl)-2-methylpropylamino)benzo[d] thiazole-4-carbonitrile],A (A=<1 uM)
7,CC(C)(CNc1nc2c(C(N)=O)cccc2s1)c1ccc(F)cc1 [2-(2-(4-fluorophenyl)-2-methylpropylamino)benzo[d] thiazole-4-carboxamide],C (C=10-20 uM)
8,CC(C)(CNc1nc2cc(C#N)ccc2s1)c1ccc(F)cc1 [2-(2-(4-fluorophenyl)-2-methylpropylamino)benzo[d] thiazole-5-carbonitrile],B (B=1-10 uM)
9,CC(C)(CNc1nc2cc(C(N)=O)ccc2s1)c1ccc(F)cc1 [2-(2-(4-fluorophenyl)-2-methylpropylamino)benzo[d] thiazole-5-carboxamide],B (B=1-10 uM)
10,CC(C)(CNc1nc2ccc(C#N)cc2s1)c1ccc(F)cc1 [2-(2-(4-fluorophenyl)-2-methylpropylamino)benzo[d] thiazole-6-carbonitrile],B (B=1-10 uM)
11,CC(C)(CNc1nc2ccc(C(N)=O)cc2s1)c1ccc(F)cc1 [2-(2-(4-fluorophenyl)-2-methylpropylamino)benzo[d] thiazole-6-carboxamide],A (A=<1 uM)
12,CC(C)(CNc1nc2cccc(C#N)c2s1)c1ccc(F)cc1 [2-(2-(4-fluorophenyl)-2-methylpropylamino)benzo[d] thiazole-7-carbonitrile],B (B=1-10 uM)
13,CC(C)(CNc1nc2cccc(C(N)=O)c2s1)c1ccc(F)cc1 [2-(2-(4-fluorophenyl)-2-methylpropylamino)benzo[d] thiazole-7-carboxamide],B (B=1-10 uM)
14,N#Cc1ccc2nc(NCCc3ccc(F)cc3)sc2c1 [2-(4-fluorophenethylamino)benzo[d] thiazole-6-carbonitrile],D (D=>20 uM)
15,NC(=O)c1ccc2nc(NCCc3ccc(F)cc3)sc2c1 [2-(4-fluorophenethylamino)benzo[d] thiazole-6-carboxamide],B (B=1-10 uM)
16,N#Cc1ccc2nc(NCC3(c4ncccc4F)CCC3)sc2c1 [2-((1-(3-fluoropyridin-2-yl)cyclobutyl)methylamino)benzo[d] thiazole-6-carbonitrile],B (B=1-10 uM)
17,NC(=O)c1ccc2nc(NCC3(c4ncccc4F)CCC3)sc2c1 [2-((1-(3-fluoropyridin-2-yl)cyclobutyl)methylamino)benzo[d] thiazole-6-carboxamide],B (B=1-10 uM)
18,COc1cccnc1C1(CNc2nc3ccc(C#N)cc3s2)CCC1 [2-((1-(3-methoxypyridin-2-yl)cyclobutyl)methylamino)benzo[d] thiazole-6-carbonitrile],D (D=>20 uM)

# Same assay, conditions: Table 5; concentration at which the compound increased enzymatic activity by 40%; calcium at pCa25
row,Compound,Mean AC1.4
1,O=C(Nc1ccn(-c2ccccc2)n1)C1(c2ncccc2F)CCC1 [1-(3-fluoropyridin-2-yl)-N-(1-phenyl-1H-pyrazol-3-yl)cyclobutanecarboxamide],D (D=>20 uM)
2,Cc1cc(NC(=O)C2(c3ncccc3F)CCC2)nn1-c1ccccc1 [1-(3-fluoropyridin-2-yl)-N-(5-methyl-1-phenyl-1H-pyrazol-3-yl)cyclobutanecarboxamide],D (D=>20 uM)

# Source: patent US9278962B2 (Cytokinetics, Inc., priority 2011, dated 2016)
